PubChem BioAssay AID1918947 (Molecular Pharmacology Branch, DTP, NCI, 2023)
Values joined by “and” are separate entries in the source; they are usually repeats but may differ in a detail not shown here. Equal values may be shown once.

Tested on: A498 complex spheroid viability
Assay: Anticancer human tumor A498 cell line growth inhibition;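 further: spheroids exposed to agents for seven days before readout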;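 on viability, T/C: 100% = DMSO vehicle-treated spheroids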
Settings: for viability, T/C: stronger effect = lower value
Summary of the method: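 Multicellular complex spheroids of tumor cells with human endothelial cells (HUVEC) and mesenchymal stem cells; the LSD1 inhibitor iadademstat was combined with standard-of-care or investigational agents. Top concentration at or near clinical Cmax, half-log dilutions; final DMSO ≤0.25%.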

[1] = curve of first compound, second compound 0.1 µM
[2] = curve of first compound, second compound 0.316 µM
[3] = curve of first compound, second compound 1 µM
[4] = curve of first compound, second compound 3.16 µM
[5] = curve of first compound, second compound 10 µM

`CC1COCCN1c1cc(-c2ccnn2C)c2ccnc(-c3ccn[nH]3)c2n1` (centres undefined) was tested, and the viability, T/C (compound 0.00316 µM) was 103% and 100%, the viability, T/C (compound 0.01 µM) was 82% and 81.8% and the viability, T/C (compound 0.0316 µM) was 36.7% and 37.3%. The viability, T/C (compound 0.1 µM) was 18.8% and 22.5%, the viability, T/C (compound 0.316 µM) was 14.9% and 16.1% and the viability, T/C (compound 1 µM) was 11.2% and 10.8%. The IC50 (curve of compound) was 22.8 nM and 23.4 nM.

In the case of `O=C(C=Cc1cccc(S(=O)(=O)Nc2ccccc2)c1)NO`, the viability, T/C (compound 0.00949 µM) is reported as 94% and 91%, the viability, T/C (compound 0.03 µM) is reported as 82.5% and 80.6% and the viability, T/C (compound 0.0949 µM) is reported as 70.8% and 65.3%. For the same molecule, the viability, T/C (compound 0.3 µM) was 53.1% and 46.8%, the viability, T/C (compound 0.949 µM) was 33.8% and 34.2% and the viability, T/C (compound 3 µM) was 12.4% and 8.72%. For the same molecule, the IC50 (curve of compound) was 365 nM and 282 nM.

`O=C(c1cc(Cc2n[nH]c(=O)c3ccccc23)ccc1F)N1CCN(C(=O)C2CC2)CC1` + NC1CCC(NC2CC2c2ccccc2)CC1 showed an IC50 [1] of over 10000 nM, an IC50 [2] of over 10000 nM and an IC50 [3] of over 10000 nM. It also gave an IC50 [4] of over 10000 nM, an IC50 [5] of over 10000 nM and a viability, T/C (second compound 0.1 µM, first compound 0.0316 µM) of 85.1%. It also gave a viability, T/C (second compound 0.1 µM, first compound 0.1 µM) of 82.7%, a viability, T/C (second compound 0.1 µM, first compound 0.316 µM) of 89.1% and a viability, T/C (second compound 0.1 µM, first compound 1 µM) of 85.8%. It also gave a viability, T/C (second compound 0.1 µM, first compound 3.16 µM) of 84.7%, a viability, T/C (second compound 0.1 µM, first compound 10 µM) of 82.1% and a viability, T/C (second compound 0.316 µM, first compound 0.0316 µM) of 92.3%. It also gave a viability, T/C (second compound 0.316 µM, first compound 0.1 µM) of 93.3%, a viability, T/C (second compound 0.316 µM, first compound 0.316 µM) of 94.4% and a viability, T/C (second compound 0.316 µM, first compound 1 µM) of 94.4%. The viability, T/C (second compound 0.316 µM, first compound 3.16 µM) was 85%, the viability, T/C (second compound 0.316 µM, first compound 10 µM) was 84.4% and the viability, T/C (second compound 1 µM, first compound 0.0316 µM) was 82.3%. The viability, T/C (second compound 1 µM, first compound 0.1 µM) was 87.4%, the viability, T/C (second compound 1 µM, first compound 0.316 µM) was 91.1% and the viability, T/C (second compound 1 µM, first compound 1 µM) was 87.4%. The viability, T/C (second compound 1 µM, first compound 3.16 µM) was 79.5%, the viability, T/C (second compound 1 µM, first compound 10 µM) was 75.9% and the viability, T/C (second compound 3.16 µM, first compound 0.0316 µM) was 79.8%. It also gave a viability, T/C (second compound 3.16 µM, first compound 0.1 µM) of 85.3%, a viability, T/C (second compound 3.16 µM, first compound 0.316 µM) of 69.5% and a viability, T/C (second compound 3.16 µM, first compound 1 µM) of 85.5%. The viability, T/C (second compound 3.16 µM, first compound 3.16 µM) was 79.2%, the viability, T/C (second compound 3.16 µM, first compound 10 µM) was 77.1% and the viability, T/C (second compound 10 µM, first compound 0.0316 µM) was 71%. The viability, T/C (second compound 10 µM, first compound 0.1 µM) was 73.7%, the viability, T/C (second compound 10 µM, first compound 0.316 µM) was 74.4% and the viability, T/C (second compound 10 µM, first compound 1 µM) was 74.1%. It also gave a viability, T/C (second compound 10 µM, first compound 3.16 µM) of 62.5% and a viability, T/C (second compound 10 µM, first compound 10 µM) of 66.8%.

`CCc1c2c(nc3ccc(O)cc13)-c1cc3c(c(=O)n1C2)COC(=O)[C@]3(O)CC` + NC1CC1c1ccc(-c2cccc(O)c2)cc1 was tested, and the IC50 [1] was under 0.949 nM, the IC50 [2] was under 0.949 nM and the IC50 [3] was under 0.949 nM. It also gave an IC50 [4] of under 0.949 nM, an IC50 [5] of under 0.949 nM and a viability, T/C (second compound 0.1 µM, first compound 0.000949 µM) of 39.9%. It also gave a viability, T/C (second compound 0.1 µM, first compound 0.003 µM) of 34.3%, a viability, T/C (second compound 0.1 µM, first compound 0.00949 µM) of 23.6% and a viability, T/C (second compound 0.1 µM, first compound 0.03 µM) of 0.69%. The viability, T/C (second compound 0.1 µM, first compound 0.0949 µM) was 0.04%, the viability, T/C (second compound 0.1 µM, first compound 0.3 µM) was 0.13% and the viability, T/C (second compound 0.316 µM, first compound 0.000949 µM) was 37.5%. For the same molecule, the viability, T/C (second compound 0.316 µM, first compound 0.003 µM) was 36.1%, the viability, T/C (second compound 0.316 µM, first compound 0.00949 µM) was 25.2% and the viability, T/C (second compound 0.316 µM, first compound 0.03 µM) was 1.05%. For the same molecule, the viability, T/C (second compound 0.316 µM, first compound 0.0949 µM) was 0.04%, the viability, T/C (second compound 0.316 µM, first compound 0.3 µM) was 0.13% and the viability, T/C (second compound 1 µM, first compound 0.000949 µM) was 42.8%. The viability, T/C (second compound 1 µM, first compound 0.003 µM) was 31.7%, the viability, T/C (second compound 1 µM, first compound 0.00949 µM) was 23.8% and the viability, T/C (second compound 1 µM, first compound 0.03 µM) was 0.94%. The viability, T/C (second compound 1 µM, first compound 0.0949 µM) was 0.05%, the viability, T/C (second compound 1 µM, first compound 0.3 µM) was 0.13% and the viability, T/C (second compound 3.16 µM, first compound 0.000949 µM) was 43%. For the same molecule, the viability, T/C (second compound 3.16 µM, first compound 0.003 µM) was 32%, the viability, T/C (second compound 3.16 µM, first compound 0.00949 µM) was 24.8% and the viability, T/C (second compound 3.16 µM, first compound 0.03 µM) was 1.16%. It also gave a viability, T/C (second compound 3.16 µM, first compound 0.0949 µM) of 0.06%, a viability, T/C (second compound 3.16 µM, first compound 0.3 µM) of 0.51% and a viability, T/C (second compound 10 µM, first compound 0.000949 µM) of 41%. For the same molecule, the viability, T/C (second compound 10 µM, first compound 0.003 µM) was 30.1%, the viability, T/C (second compound 10 µM, first compound 0.00949 µM) was 23.3% and the viability, T/C (second compound 10 µM, first compound 0.03 µM) was 0.83%. The viability, T/C (second compound 10 µM, first compound 0.0949 µM) was 0.14% and the viability, T/C (second compound 10 µM, first compound 0.3 µM) was 0.99%.
